According to patent publication US10329309B2, “3-(3H-imidazo[4,5-B]pyridin-2-yl)-1H-pyrazolo[4,3-B]pyridines and therapeutic uses thereof” (Samumed, LLC, priority 2015, dated 2019):

Assays:
Assay type in all cases: cell-based
[1] = test system: SW480 colon cancer cells; assay: Cell viability assay (CellTiter-Blue), four days; settings: Homo sapiens, 96 h; for EC50: CellTiter-Blue cell viability; for inhibition at 10 µM: read-out: percent inhibition at 10 μM (given for EC50 of >10 μM)
How it was run: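 Resazurin reduction (Ex 560/Em 590 nm, ~3 h reagent incubation) served as the viability read-out after SW480 cells were treated for four days at 37 °C. Doses ran from 10 μM down to 0.0045 μM in eight 1:3 steps. Curves fitted non-linearly for EC50, else % inhibition at 10 μM reported.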

[2] = test system: Wnt activity (Sp5-Luc reporter, SW480 colon carcinoma cells); assay: Screening assay for Wnt activity: Sp5-Luc reporter gene assay in SW480 cells; settings: Homo sapiens; for inhibition at 10 µM: 10 μM compound, read-out: percent inhibition at 10 μM (given for EC50 of >10 μM); for EC50: overnight incubation, 10-point dose-response from 10 μM
How it was run: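 Luminescence (BrightGlo) read after overnight 37 °C exposure of Sp5-Luc SW480 reporter cells, 4,000/well in 1% FBS, to compound dosed 1:3 over 10 points from 10 μM with 0.1% DMSO. Values normalized to DMSO-only cells, fitted with variable-slope four-parameter model; where EC50 exceeds 10 μM, % inhibition at 10 μM reported.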

[3] = test system: primary human fibroblasts derived from IPF patients (LL29 cells), α-smooth muscle actin (αSMA); assay: Inhibition of the fibrotic process: TGF-β1-treated primary human fibroblasts from IPF patients, αSMA staining; settings: Fibroblast, 96 h, 4 days; for EC50: LL29 fibroblasts from IPF patients, TGF-β1 20 ng/mL, inhibition of fibrotic process; for inhibition at 10 µM: LL29 fibroblasts, TGF-β1 treated, read-out: percent inhibition at 10 μM (given for EC50 of >10 μM)
How it was run: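 EC50 values come from non-linear fits of the αSMA-positive percentage among SYTOX-excluded live cells, normalized to TGF-β1 plus DMSO controls, or appear as % inhibition at 10 μM when above 10 μM. Fibrosis was induced in IPF-derived LL29 fibroblasts by 20 ng/mL TGF-β1 over 4 days, with 1:2 compound dilutions from 10 μM.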

SMILES | EC50 [1] [µM] | EC50 [2] [µM] | inhibition at 10 µM [1] [%] | inhibition at 10 µM [2] [%] | EC50 [3] [µM] | inhibition at 10 µM [3] [%]
CS(=O)(=O)NCc1cc(F)cc(-c2ccnc3[nH]c(-c4n[nH]c5ccc(-c6cncnc6)nc45)nc23)c1 [Compound 503, N-(3-Fluoro-5-(2-(5-(pyrimidin-5-yl)-1H-pyrazolo[4,3-b]pyridin-3-yl)-3H-imidazo[4,5-b]pyridin-7-yl)benzyl)methanesulfonamide] | > 10 | > 10 | 0.9 | 14.1 | > 10 | 0
Cn1cc(-c2ccc3[nH]nc(-c4nc5c(-c6cccs6)ccnc5[nH]4)c3n2)cn1 [Compound 700, 5-(1-Methyl-1H-pyrazol-4-yl)-3-(7-(thiophen-2-yl)-3H-imidazo[4,5-b]pyridin-2-yl)-1H-pyrazolo[4,3-b]pyridine] | > 10 | > 10 | 0.1 | 3.4 | 0.438 | –
O=C(Cc1ccccc1)Nc1cncc(-c2ccc3[nH]nc(-c4nc5cccnc5[nH]4)c3n2)c1 [Compound 262, N-(5-(3-(3H-imidazo[4,5-b]pyridin-2-yl)-1H-pyrazolo[4,3-b]pyridin-5-yl)pyridin-3-yl)-2-phenylacetamide] | > 10 | > 10 | 5.5 | 7.6 | > 10 | 0
CCCCC(=O)Nc1cncc(-c2ccc3[nH]nc(-c4nc5c(-c6ccccn6)ccnc5[nH]4)c3n2)c1 [Compound 159, N-(5-(3-(7-(pyridin-2-yl)-3H-imidazo[4,5-b]pyridin-2-yl)-1H-pyrazolo[4,3-b]pyridin-5-yl)pyridin-3-yl)pentanamide] | > 10 | > 10 | 6.7 | 12.6 | > 10 | 15.4
c1cc(-c2ccnc3[nH]c(-c4n[nH]c5ccc(-c6cnccn6)nc45)nc23)ccn1 [Compound 584, 5-(Pyrazin-2-yl)-3-(7-(pyridin-4-yl)-3H-imidazo[4,5-b]pyridin-2-yl)-1H-pyrazolo[4,3-b]pyridine] | > 10 | > 10 | 10.8 | 8.5 | > 10 | 4.5
Fc1cccc(-c2ccnc3[nH]c(-c4n[nH]c5ccc(-c6ccncc6)nc45)nc23)c1 [Compound 18, 3-(7-(3-fluorophenyl)-3H-imidazo[4,5-b]pyridin-2-yl)-5-(pyridin-4-yl)-1H-pyrazolo[4,3-b]pyridine] | > 10 | > 10 | 0 | 21 | > 10 | 21.4
O=C(Cc1ccccc1)Nc1cncc(-c2ccc3[nH]nc(-c4nc5c(-c6ccncc6)ccnc5[nH]4)c3n2)c1 [Compound 122, 2-phenyl-N-(5-(3-(7-(pyridin-4-yl)-3H-imidazo[4,5-b]pyridin-2-yl)-1H-pyrazolo[4,3-b]pyridin-5-yl)pyridin-3-yl)acetamide] | > 10 | > 10 | 4.4 | 8.4 | > 10 | 0
c1cnc2[nH]c(-c3n[nH]c4ccc(-c5cn[nH]c5)nc34)nc2c1 [Compound 651, 3-(3H-Imidazo[4,5-b]pyridin-2-yl)-5-(1H-pyrazol-4-yl)-1H-pyrazolo[4,3-b]pyridine] | > 10 | > 10 | 3.1 | 12 | > 10 | 28.6
O=C(CC1CCNCC1)Nc1cncc(-c2ccc3[nH]nc(-c4nc5c(-c6ccsc6)ccnc5[nH]4)c3n2)c1 [Compound 673, 2-(Piperidin-4-yl)-N-(5-(3-(7-(thiophen-3-yl)-3H-imidazo[4,5-b]pyridin-2-yl)-1H-pyrazolo[4,3-b]pyridin-5-yl)pyridin-3-yl)acetamide] | > 10 | > 10 | 0.6 | 26.9 | 4.75 | –
O=C(Nc1cncc(-c2ccc3[nH]nc(-c4nc5c(-c6cccc(F)c6)ccnc5[nH]4)c3n2)c1)C1CC1 [Compound 20, N-(5-(3-(7-(3-Fluorophenyl)-3H-imidazo[4,5-b]pyridin-2-yl)-1H-pyrazolo [4,3-b]pyridin-5-yl)pyridin-3-yl)cyclopropanecarboxamide] | > 10 | > 10 | 2.8 | 51.2 | > 10 | 20.2
Cn1cc(-c2ccc3[nH]nc(-c4nc5c(-c6ccc(F)cc6)ccnc5[nH]4)c3n2)c(CO)n1 [Compound 1129, (4-(3-(7-(4-Fluorophenyl)-3H-imidazo[4,5-b]pyridin-2-yl)-1H-pyrazolo[4,3-b]pyridin-5-yl)-1-methyl-1H-pyrazol-3-yl)methanol] | > 10 | > 10 | 16.9 | 14.8 | 0.342 | –
Nc1cncc(-c2ccc3[nH]nc(-c4nc5c(-c6ccccc6F)ccnc5[nH]4)c3n2)c1 [Compound 59, 5-(3-(7-(2-fluorophenyl)-3H-imidazo[4,5-b]pyridin-2-yl)-1H-pyrazolo[4,3-b]pyridin-5-yl)pyridin-3-amine] | > 10 | > 10 | 21.5 | 46.5 | 2.41 | –

More lines, main results first:

EC50 [1] [µM] | EC50 [2] [µM] | SMILES | inhibition at 10 µM [1] [%] | inhibition at 10 µM [2] [%] | EC50 [3] [µM] | inhibition at 10 µM [3] [%]
> 10 | > 10 | CC(C)(C)C(=O)Nc1cncc(-c2ccc3[nH]nc(-c4nc5c(-c6ccc(F)cc6)ccnc5[nH]4)c3n2)c1 [Compound 36, N-(5-(3-(7-(4-fluorophenyl)-3H-imidazo[4,5-b]pyridin-2-yl)-1H-pyrazolo [4,3-b]pyridin-5-yl)pyridin-3-yl)pivalamide] | 15 | 28.4 | 2.56 | –
> 10 | > 10 | CN1CCN(c2ccnc3[nH]c(-c4n[nH]c5ccc(-c6cncc(N)c6)nc45)nc23)CC1 [Compound 227, 5-(3-(7-(4-methylpiperazin-1-yl)-3H-imidazo[4,5-b]pyridin-2-yl)-1H-pyrazolo[4,3-b]pyridin-5-yl)pyridin-3-amine] | 0 | 8.2 | > 10 | 32.8
> 10 | > 10 | O=C(CC1CCNCC1)Nc1cncc(-c2ccc3[nH]nc(-c4nc5c(-c6ccccn6)ccnc5[nH]4)c3n2)c1 [Compound 593, 2-(Piperidin-4-yl)-N-(5-(3-(7-(pyridin-2-yl)-3H-imidazo[4,5-b]pyridin-2-yl)-1H-pyrazolo[4,3-b]pyridin-5-yl)pyridin-3-yl)acetamide] | 16.7 | 29.3 | 0.913 | –
> 10 | > 10 | COc1cncc(-c2ccc3[nH]nc(-c4nc5c(-c6ccoc6)ccnc5[nH]4)c3n2)c1 [Compound 692, 3-(7-(Furan-3-yl)-3H-imidazo[4,5-b]pyridin-2-yl)-5-(5-methoxypyridin-3-yl)-1H-pyrazolo[4,3-b]pyridine] | 17.6 | 15.3 | 1.32 | –
> 10 | > 10 | Fc1cccc(-c2ccnc3[nH]c(-c4n[nH]c5ccc(-c6cn[nH]c6)nc45)nc23)c1 [Compound 507, 3-(7-(3-fluorophenyl)-3H-imidazo[4,5-b]pyridin-2-yl)-5-(1H-pyrazol-4-yl)-1H-pyrazolo[4,3-b]pyridine] | 0 | 17 | > 10 | 16.2
> 10 | > 10 | c1cc(-c2ccc3[nH]nc(-c4nc5c(-c6ccncc6)ccnc5[nH]4)c3n2)ccn1 [Compound 130, 5-(pyridin-4-yl)-3-(7-(pyridin-4-yl)-3H-imidazo[4,5-b]pyridin-2-yl)-1H-pyrazolo [4,3-b]pyridine] | 0 | 12.1 | > 10 | 39.3
4.37 | 3.93 | CN(C)CCNc1cc(F)cc(-c2ccnc3[nH]c(-c4n[nH]c5ccc(-c6cnccn6)nc45)nc23)c1 [Compound 792, N^1-(3-Fluoro-5-(2-(5-(pyrazin-2-yl)-1H-pyrazolo[4,3-b]pyridin-3-yl)-3H-imidazo[4,5-b]pyridin-7-yl)phenyl)-N^2,N^2-dimethylethane-1,2-diamine] | – | – | 2.24 | –
9.02 | > 10 | CN(C)CCNc1cc(F)cc(-c2ccnc3[nH]c(-c4n[nH]c5ccc(-c6ccccn6)nc45)nc23)c1 [Compound 476, N^1-(3-Fluoro-5-(2-(5-(pyridin-2-yl)-1H-pyrazolo[4,3-b]pyridin-3-yl)-3H-imidazo[4,5-b]pyridin-7-yl)phenyl)-N^2,N^2-dimethylethane-1,2-diamine] | – | 15.5 | 4.41 | –
